Data reported in patent US9457007B2, “Prenylflavanone compounds for modulating diabetes” (NATUREWISE BIOTECH & MEDICALS CORPORATION, priority 2013, dated 2016).

Key:
Type in all cases: in vivo
[1] = system: STZ-induced diabetic mice; test: Blood glucose in the STZ-induced diabetic mice; details: propolins study; after administration for 8 weeks by gavage daily; PPC 9.0, PPD 6.75, PPF 4.5, PPG 4.5, Januvia 370 mg/kg/mouse
Description: The male FBV mice of 5 weeks old, commercially available from BioLASCO Co., Ilan, Taiwan, were acclimatized for 1 week, prior to administration of streptozotocin (STZ) at 40 mg/kg for 3 consecutive days. STZ was formulated with an aqueous solution of sodium citrate (pH 4.5, 73.5 mg/5 mL) on ice, and then 100 μL of the formulation was dosed by intraperitoneal injection. From day 2 in the 3 consecutive days, the mice were dosed with 5% (w/v) glucose water for 6 consecutive days. After allowing the mice to rest for 10 days, blood glucose levels were measured. After administration of STZ for 1 week, about 5 μL of blood was collected from each of the mice at the tail vein, and was assayed for blood glucose by a blood glucose monitor and chip (FORA, California, U.S.A.). After 1 week, blood glucose was detected once more, and whether blood glucose was smooth or not was evaluated prior to grouping. The values of blood glucose in all of the mice induced to suffer from diabetes were brought to fall within about 300±50 mg/dL. […]
(§1) An appropriate amount of propolins and its relevant derivatives, such as PPA, PPB, PPC, PPD, PPE, PPF, PPG, PPH, PPI or PPJ, was dissolved with 3 ml 95% alcohol and then uniformly mixed with 80 μL Tween 80; after concentrating under reduced pressure for removal of alcohol, it was uniformly dispersed into 16 ml water to give a liquid mixture of propolins. This mixture was fed by 200 μL gavage into the diabetic mice designated as the propolins and its relevant derivative group.
(§2) Sitagliptin (trade name: Januvia), commercially available from American Merck Co., was used as the DPP4 inhibitor. An appropriate amount of sitagliptin was dissolved in water to provide a final concentration allowing administration of the mice at a dose of 370 mg/kg. In the following example, Januvia was representative of the DPP4 inhibitors and acted as a positive control group for reference.
(§3) Tween 80 (80 μL) was mixed into 16 ml water to give a placebo, which was fed by 200 μL gavage into the STZ-induced diabetic mice or normal mice (i.e., the mice without induction for diabetes). Oral gavage was carried out once at a fixed time each day, and weight, feedstuff intake and water intake were measured weekly until tests were finished at 12-13 weeks.

[2] = system: STZ-induced diabetic mice; test: Feedstuff intake of the diabetic mice; details: for feedstuff intake: propolins study
Description: (§4) The male FBV mice of 5 weeks old, commercially available from BioLASCO Co., Ilan, Taiwan, were acclimatized for 1 week, prior to administration of streptozotocin (STZ) at 40 mg/kg for 3 consecutive days. STZ was formulated with an aqueous solution of sodium citrate (pH 4.5, 73.5 mg/5 mL) on ice, and then 100 μL of the formulation was dosed by intraperitoneal injection. From day 2 in the 3 consecutive days, the mice were dosed with 5% (w/v) glucose water for 6 consecutive days. After allowing the mice to rest for 10 days, blood glucose levels were measured. After administration of STZ for 1 week, about 5 μL of blood was collected from each of the mice at the tail vein, and was assayed for blood glucose by a blood glucose monitor and chip (FORA, California, U.S.A.). After 1 week, blood glucose was detected once more, and whether blood glucose was smooth or not was evaluated prior to grouping. The values of blood glucose in all of the mice induced to suffer from diabetes were brought to fall within about 300±50 mg/dL.
(§5) An appropriate amount of the Taiwan Green Propolis alcohol extract was dissolved with 3 ml 95% alcohol and then uniformly mixed with 80 μL Tween 80 as a cosolvent; after concentrating under reduced pressure for removal of alcohol, it was dispersed into 16 ml water to give a liquid mixture of the Taiwan Green Propolis extract. This mixture was fed by 200 μL gavage into the diabetic mice designated as the Taiwan Green Propolis extract group.
as §1, §2, §3

[3] = system: STZ-induced diabetic mice; test: Water intake of the diabetic mice
Description: as §4, §5, §1, §2, §3

[4] = system: STZ-induced diabetic mice; test: Oral glucose tolerance test (OGTT); set-up: reduction of AUC compared with the STZ group / extent of reduction of AUC compared with the STZ group: concentration or dose not given beside the values
Description: as §4
After administration of the testing substance to the animals for 12 weeks, the OGTT test was performed for evaluation of secretion and effects of insulin. All of the mice in the test were administered with the testing substance and then fasted for 4 hours prior to blood sampling at the first point called point 0. Afterwards, the mice were fed by oral gavage with 200 μL glucose in water, equivalent to a dose of 1.0 g/kg. After administration, blood was collected for an assay of blood glucose at 15, 30, 60, 120 and 180 minutes, respectively. Therefore, a total of 6 points, including points at 0, 15, 30, 60, 120 and 180 minutes, were obtained. About 5 μL of blood was collected from each of the mice at the tail vein and was then assayed for blood glucose by the blood glucose monitor and chip (FORA, California, U.S.A.). The blood glucose values at the Y-axis were plotted against the time points at the X-axis. Each group was calculated for an area under curve for comparison. The efficacy in regulation of blood glucose was evaluated by the area showing a relationship between the testing substance and secretion and effects of insulin.

[5] = system: STZ-induced diabetic mice; test: Analysis of glycosylated hemoglobin HbA1c; details: TPE study, TPE 36 mg/kg, DPP4I 370 mg/kg
Description: STZ was formulated with an aqueous solution of sodium citrate (pH 4.5, 73.5 mg/5 mL) on ice, and then 100 μL of the formulation was dosed by intraperitoneal injection. […] The glycosylated hemoglobin was used for evaluation of the efficacy of the testing substance in the regulation of blood glucose. […] (New Taipei City, Taiwan) for analysis. The analysis may confer an average and standard deviation to each group of the mice. In the event the presence of the blood glucose modulation efficacy for the testing substance, this value would be lower; and in the event the absence of the blood glucose modulation efficacy for the testing substance, this value would be higher.

N[C@@H](CC(=O)N1CCn2c(nnc2C(F)(F)F)C1)Cc1cc(F)c(F)cc1F [DPP4I, Sitagliptin, reference compound]
blood glucose [1]: 330 mg/dL | effect on food intake ([2]; TPE study, 13 weeks, TPE 36 mg/kg/day, Januvia 370 mg/kg): the test results were the same | feedstuff intake ([2]; at 1 week): 5.5 g/mouse | feedstuff intake ([2]; at 6 weeks): 6.5 g/mouse | feedstuff intake ([2]; at 8 weeks): 6.4 g/mouse | water intake ([3]; TPE study, after 8 weeks, TPE 36 mg/kg/day, Januvia 370 mg/kg): 5.4 mL/day/mouse | water intake ([3]; TPE study, after 13 weeks, TPE 36 mg/kg/day, Januvia 370 mg/kg): 3.8 mL/day/mouse | water intake ([3]; TPE study, first week, TPE 36 mg/kg/day, Januvia 370 mg/kg): 7.0 mL/day/mouse | water intake ([3]; propolins study, at 1 week): 8.0 mL/mouse | water intake ([3]; propolins study, at 6 weeks): 12.0 mL/mouse | water intake ([3]; propolins study, at 8 weeks): 12.5 mL/mouse | blood glucose value in glucose tolerance test ([4]; TPE study, 0 point, glucose 1.0 g/kg oral, TPE 36 mg/kg, Januvia 370 mg/kg): about 260 mg/dL | blood glucose value in glucose tolerance test ([4]; TPE study, 30-minute time point after glucose in water): about 420 mg/dL | blood glucose value in glucose tolerance test ([4]; TPE study, 180-minute time point): 240 mg/dL | reduction of AUC compared with the STZ group ([4]; TPE study, OGTT): 66.1% | AUC value of blood glucose (integral area) ([4]; TPE study, OGTT 0-180 min, TPE 36 mg/kg, DPP4I 370 mg/kg): about 5.8×10^4 | value of blood glucose in glucose tolerance test ([4]; propolins study, 0 point, PPC 9.0, PPD 6.75, PPF 4.5, PPG 4.5, DPP4I 370 mg/kg/mouse): about 380 mg/dL | value of blood glucose in glucose tolerance test ([4]; propolins study, 30-minute time point after glucose in water): about 450 mg/dL | value of blood glucose in glucose tolerance test ([4]; propolins study, 120-minute time point): about 450 mg/dL | value of blood glucose in glucose tolerance test ([4]; propolins study, 180-minute time point): 400 mg/dL | AUC value for blood glucose (integral area) ([4]; propolins study, OGTT): about 7.2×10^4 | extent of reduction of AUC compared with the STZ group ([4]; propolins study, OGTT): 42.0% | reduction of the generation of glycosylated hemoglobin ([5]; 13 weeks): 55% | value of glycosylated hemoglobin ([5]; administration for 13 weeks): about 4.6%
